Assay results as given in patent US20240197871A1, “COMBINATION OF A CAR T CELL THERAPY AND AN IMMUNOMODULATORY COMPOUND FOR TREATMENT OF LYMPHOMA” (Juno Therapeutics, Inc., priority 2021, published 2024).

Tested on: RL CD19+ tumor cells
Assay: Cytolytic function: co-culture of anti-CD19 CAR T cells with RL CD19+ tumor cells
Assay type: cell-based
Conditions: E:T 1:1
Protocol: To do so, CAR T cells were plated on ploy-D-lysine plates. CD19+ tumor cells transduced with IncuCyte® NucLight Red (Essen BioScience Inc.) were then added to the CAR T cells in addition to Compound C or vehicle control. Tumor cell number was measured over multiple days.
Treatment with CAR T cells in combination with either immunomodulatory compound led to lower tumor cell numbers than did CAR T cells alone or the compounds alone.

O=C1CC[C@H](N2Cc3c(OCc4ccc(CN5CCOCC5)cc4)cccc3C2=O)C(=O)N1 [Compound 2, (S)-3-[4-(4-morpholin-4-ylmethyl-benzyloxy)-1-oxo-1,3-dihydro-isoindol-2-yl]-piperidine-2,6-dione, reference compound]
RL tumor cell number vs CAR T cells alone or compound alone (compound at 0.01 μM with anti-CD19 CAR T cells): lower
RL tumor cell number vs CAR T cells alone or compound alone (compound at 0.1 μM with anti-CD19 CAR T cells): lower
